A short description of series [1]: Solubility of the polymorphs at pH 7.4 in phosphate buffer. It counts as physicochemical. Conditions: pH 7.4 phosphate buffer, 25° C. The protocol: The solubility of the different polymorphs was determined at pH 7.4 in phosphate buffer at 25° C. Samples were analyzed as a function of time for each form to determine the equilibrium values. The residual solids from each sample were analyzed to verify that the form was unchanged during the experiment. The concentration (mg/mL) versus time data is listed below for each form: […]

The target of series [2] is T1, LPA1 receptor (Homo sapiens, UniProt Q92633).
T1 construct: host or cells: patients (endogenous receptor), clinical study cited from Allanore et al. 2018
Conditions: patients with dcSSc; cited from earlier work.

Series [3] in a line: Solubility of Compound I in solvents at neutral/acidic pH. The format is physicochemical.
Series [4] has as its target T2, LPA1 receptor (Mus musculus, UniProt P61793).
T2 construct: from tissue; host or cells: living mouse (skin), endogenous receptor
The conditions noted are these: mouse model of skin fibrosis; cited from earlier work.

Series [5] is described as follows: Physical stability of solid state forms at 80° C./75% RH, examined by FTIR. It counts as physicochemical. The conditions noted are these: 1 week, open glass vials. The method, then: The physical stability of Forms 1, 2, and 3 was investigated at 80° C./75% RH in order to determine if interconversion was observed. The samples were examined by FTIR after stressing 1 week in open glass vials.

Series [6] is described as follows: Form conversion when slurried in solvent, determined by FTIR. It counts as physicochemical. Conditions: slurried in MEK or 1-pentanol at 60° C. or 70° C.

T1 sequence (Q92633 whole entry): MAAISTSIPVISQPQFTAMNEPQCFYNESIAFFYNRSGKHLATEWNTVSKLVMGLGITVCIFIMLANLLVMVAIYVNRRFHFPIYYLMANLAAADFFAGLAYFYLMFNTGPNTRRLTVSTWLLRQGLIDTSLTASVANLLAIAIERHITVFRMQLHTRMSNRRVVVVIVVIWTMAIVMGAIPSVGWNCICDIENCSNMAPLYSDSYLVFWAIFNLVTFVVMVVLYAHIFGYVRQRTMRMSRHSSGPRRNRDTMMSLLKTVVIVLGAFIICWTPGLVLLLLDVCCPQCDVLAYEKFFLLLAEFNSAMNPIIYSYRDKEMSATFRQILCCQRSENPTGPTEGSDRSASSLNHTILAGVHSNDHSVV
T2 sequence (P61793 whole entry): as the sequence (Q92633 whole entry) above, with I4A, I8S, P22Q, H40Y, I61V, E193D, N194H, I269V, S331N, T335N counted along it

Turning to `COc1ccc(C(=O)NC2(C(=O)O)Cc3ccccc3C2)cc1OCCc1cccc(C)c1` [Form 3, 2-(4-methoxy-3-(3-methylphenethoxy)benzamido)-2,3-dihydro-1H-indene-2-carboxylic acid], the “equilibrium solubility at 24 hours relative to Form 1” value in series [1] is listed as “more than double”.

As for `COc1ccc(C(=O)NC2(C(=O)O)Cc3ccccc3C2)cc1OCCc1cccc(C)c1` [Compound I, 2-(4-methoxy-3-(3-methylphenethoxy)benzamido)-2,3-dihydro-1H-indene-2-carboxylic acid], on LPA1 receptor [2], the outcome measures was “improved outcome measures”, the target engagement entry is listed as “demonstrated target engagement” and the tolerability entry was “well tolerated”. Further, the “solubility in most solvents” value in series [3] is given as “highly insoluble”. Further, at LPA1 receptor [4], the collagen content entry was “reduced collagen content”, the dermal thickening result is on record as “reversed dermal thickening” and the myofibroblast differentiation entry is reported as “significantly inhibited myofibroblast differentiation”.

For the molecule `COc1ccc(C(=O)NC2(C(=O)O)Cc3ccccc3C2)cc1OCCc1cccc(C)c1` [Form 4, 2-(4-methoxy-3-(3-methylphenethoxy)benzamido)-2,3-dihydro-1H-indene-2-carboxylic acid], in series [1], the “equilibrium solubility at 24 hours relative to Form 1” value is “more than double”.

Regarding `COc1ccc(C(=O)NC2(C(=O)O)Cc3ccccc3C2)cc1OCCc1cccc(C)c1` [Form 1, 2-(4-methoxy-3-(3-methylphenethoxy)benzamido)-2,3-dihydro-1H-indene-2-carboxylic acid], in series [5], the “changes in FTIR spectrum after stressing (physical stability)” value was “unchanged FTIR”. Moreover, in series [6], the “form conversion in slurry” value is reported as “converts to crystalline Form 2”.

As to `COc1ccc(C(=O)NC2(C(=O)O)Cc3ccccc3C2)cc1OCCc1cccc(C)c1` [Form 2, 2-(4-methoxy-3-(3-methylphenethoxy)benzamido)-2,3-dihydro-1H-indene-2-carboxylic acid], the “24 hour solubility result greater than Form 1” value in series [1] (24 hour) is listed as “more than 30%”.

The values are drawn from US12391640B2, “Process of making a crystalline EDG-2 receptor antagonist” (HORIZON THERAPEUTICS IRELAND DAC, priority 2022, dated 2025).
